The text below walks through data of US7671061B2, “Methods and compositions for treating pain” (Hydra Biosciences, Inc., priority 2005, dated 2010).

T1 sequence (O75762 whole entry K186N): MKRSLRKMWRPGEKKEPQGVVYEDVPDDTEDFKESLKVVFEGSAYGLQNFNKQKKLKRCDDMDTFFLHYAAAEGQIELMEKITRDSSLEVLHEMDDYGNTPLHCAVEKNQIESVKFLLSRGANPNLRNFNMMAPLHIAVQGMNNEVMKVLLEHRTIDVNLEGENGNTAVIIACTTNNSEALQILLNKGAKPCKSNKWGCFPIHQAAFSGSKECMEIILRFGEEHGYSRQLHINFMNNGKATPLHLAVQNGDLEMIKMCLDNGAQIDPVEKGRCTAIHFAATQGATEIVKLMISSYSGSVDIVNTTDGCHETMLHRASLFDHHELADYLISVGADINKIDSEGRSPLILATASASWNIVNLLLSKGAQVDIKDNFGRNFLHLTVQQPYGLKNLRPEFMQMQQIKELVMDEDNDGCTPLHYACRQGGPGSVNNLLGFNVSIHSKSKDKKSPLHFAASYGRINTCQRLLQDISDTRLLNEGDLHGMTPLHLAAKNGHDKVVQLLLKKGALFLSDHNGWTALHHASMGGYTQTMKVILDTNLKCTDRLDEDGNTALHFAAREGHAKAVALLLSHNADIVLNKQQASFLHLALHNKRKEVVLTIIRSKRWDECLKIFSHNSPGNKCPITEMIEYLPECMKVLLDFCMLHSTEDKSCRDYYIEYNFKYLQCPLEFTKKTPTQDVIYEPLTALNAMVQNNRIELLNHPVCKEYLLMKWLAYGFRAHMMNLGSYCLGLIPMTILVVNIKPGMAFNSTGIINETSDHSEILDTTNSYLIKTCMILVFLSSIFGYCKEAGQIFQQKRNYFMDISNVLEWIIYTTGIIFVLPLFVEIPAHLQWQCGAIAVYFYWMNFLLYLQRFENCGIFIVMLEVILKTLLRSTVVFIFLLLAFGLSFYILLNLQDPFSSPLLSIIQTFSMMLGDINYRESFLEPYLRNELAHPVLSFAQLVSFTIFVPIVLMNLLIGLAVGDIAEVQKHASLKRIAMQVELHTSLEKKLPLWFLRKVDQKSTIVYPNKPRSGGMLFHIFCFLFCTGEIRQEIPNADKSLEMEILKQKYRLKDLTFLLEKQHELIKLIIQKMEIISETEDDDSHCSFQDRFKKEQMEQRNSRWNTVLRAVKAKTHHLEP

One experiment concerns the target T1, hTRPA1 (Homo sapiens, UniProt O75762, K186N).
T1 construct: expressed in transfected cells; host or cells: HEK293/TREx (Invitrogen), induced with tetracycline
Kind of experiment: High throughput Ca2+ fluorescence (Fluo4) assay, AITC stimulation. The class given is cell-based. The conditions noted are these: Table 1; read-out: hTRPA1 Fluo4 IC50. An excerpt: The assay depended on detection of the rise in intracellular Ca^2+ concentration ([Ca^2+]i) following channel activation in cells inducibly expressing the TRPA1 channel. Ca^2+ rise was quantified with the use of fluorescent Ca^2+ indicators that were loaded into cells and thereafter indicated the [Ca^2+]i. Ca^2+ influx followed activation of the TRPA1 channel. Compounds inhibiting the [Ca^2+]i rise were considered hits for further investigation.
These cells were maintained in the growth medium recommended by the manufacturer supplemented with 100 μg/ml hygromycin to promote retention of the TRPA1 construct. After growing to near confluency, cells were plated at a density of ˜25,000 cells/well in 384 well CellBind plates (Corning) in the presence of 1 μg/ml tetracycline, and allowed to grow for 20-30 hrs. A nearly confluent monolayer resulted. Cells were then loaded with Ca^2+ dye: Fura-2/AM or Fluo4/AM was added to the wells to a final concentration of 2 μM or 1 μM, respectively, and incubated for 80 min or 60 min, respectively, at room temperature. […] Frames were acquired at a rate of 0.2 Hz. During the assay, the plates were continuously […], with pipette mixing of wells following addition of each reagent. For the screening assay, 13 μl of a diluted stock (at 50 μM) was added to each well for 2 minutes following the collection of a short (4 frame) baseline. […] Data was collected for ˜3 minutes following addition of AITC, where the fluorescent intensity (for Fluo4) and the F340/F380 ratio (for Fura-2) were proportional to the [Ca^2+]i. Negative controls consisted of HEK293/TREx TRPA1 cells exposed to AITC, but no compound. […] These controls defined a screening window, and “hits” were defined as those compounds inhibiting the fluorescence response by at least 40%. IC50 values were determined for compounds defined as “hits.” The Fluo4 cell-based fluorescence assay was used to determine the intracellular Ca^2+ concentration in the presence of varying drug concentration. […] Compounds were tested in triplicate at all concentrations. Standard software was used to fit IC50 curves.
As usually defined, the IC50 is the concentration needed to halve the response being measured. Take `CCN(CC)C(=O)C1=C(C)NC(=S)NC1c1cc(Br)cc(OC)c1OC` (centres unmarked): the IC50 was more than 10 µM.

As to `CCN1C(=O)NC(c2c(F)cccc2Cl)C(C(=O)OC)=C1C` (centres unmarked), the IC50 is more than 10 µM.

Consider `C=CCOC(=O)C1=C(C)NC(=O)NC1c1ccc(CC)cc1` (centres unmarked), for which the IC50 was more than 10 µM.

For `CC1=C(C(=O)OCC2CCCCC2)C(c2ccccc2F)NC(=O)N1` (centres unmarked), the IC50 was more than 10 µM.

Regarding `CCCC1=C(C(=O)OCC)C(c2ccc(Br)cc2)NC(=O)N1` (centres unmarked), the IC50 was not below 30 µM.

In the case of `CCOC(=O)C1=C(c2ccccc2)NC(=S)NC1c1ccccc1OC` (centres unmarked), the IC50 was more than 10 µM.

Regarding `CCOC(=O)C1=C(C)N(C)C(=O)NC1c1cccc(Cl)c1Cl` (centres unmarked), the IC50 was more than 10 µM.

As for `CCOC(=O)C1=C(C)NC(=O)NC1c1ccc(O)cc1` (centres unmarked), the IC50 was more than 10 µM.

For the compound `CCOC(=O)C1=C(C)NC(=S)NC1c1cc(C)ccc1C` (centres unmarked), the IC50 is more than 10 µM.

For the compound `CCCOC(=O)C1=C(C)NC(=O)NC1c1ccc(N(CC)CC)cc1` (centres unmarked), the IC50 is more than 10 µM.

Turning to `CC1=C(C(=O)OC(C)(C)C)C(c2ccc(Br)cc2)NC(=O)N1` (centres unmarked), the IC50 was more than 10 µM.

In the case of `C=CCOC(=O)C1=C(C)NC(=O)NC1c1ccc(C(C)(C)C)cc1` (centres unmarked), the IC50 is more than 10 µM.

With `CCN(CC)C(=O)C1=C(C)NC(=S)NC1c1ccc(OC)cc1OC` (centres unmarked), the 50% inhibitory concentration (IC50) is more than 10 µM.

`CC1=C(C(=O)OC(C)C)C(c2c(Cl)cccc2Cl)NC(=O)N1` (centres unmarked): the IC50 was more than 10 µM.

Regarding `CCOC(=O)C1=C(c2ccc(N(C)C)cc2)NC(=O)NC1c1ccccc1` (centres unmarked), the IC50 was not above 1 µM.

On to `CC1=C(C(=O)OCC(C)C)C(c2ccccc2C(F)(F)F)NC(=O)N1` (centres unmarked), for which the IC50 was not above 5 µM.

On to `CC1=C(C(=O)OC(C)C)C(c2c(O)ccc3ccccc23)NC(=S)N1` (centres unmarked), for which the IC50 is more than 10 µM.

`CCCCCOC(=O)C1=C(C)NC(=S)NC1c1ccccc1` (centres unmarked): the IC50 is more than 10 µM.

Consider `CC1=C(C(=O)N(C)C)C(c2ccccc2F)NC(=S)N1` (centres unmarked), for which the IC50 is more than 10 µM.

Take `CCN(CC)C(=O)C1=C(C)NC(=O)NC1c1c(F)cccc1Cl` (centres unmarked): the IC50 is more than 10 µM.

Take `CC1=C(C(=O)OCCc2ccccc2)C(c2ccccc2)NC(=O)N1` (centres unmarked): the IC50 is more than 10 µM.

As to `CCOC(=O)C1=C(C)NC(=S)NC1c1ccc(C)cc1C` (centres unmarked), the IC50 was more than 10 µM.

For the compound `COc1cccc(C2NC(=S)NC(C)=C2C(=O)N(C)C)c1OC` (centres unmarked), the IC50 is more than 10 µM.

On to `COC(C)OC(=O)C1=C(C)NC(=O)NC1c1cccc(Cl)c1Cl` (centres unmarked), for which the IC50 is more than 10 µM.

In the case of `CCN(CC)C(=O)C1=C(C)NC(=S)NC1c1cc(OC)ccc1OC` (centres unmarked), the IC50 was more than 10 µM.

For the compound `CCCOC(=O)C1=C(C)NC(=O)NC1c1ccccc1Br` (centres unmarked), the IC50 is more than 10 µM.

As for `CCOC(=O)C1=C(C)NC(=S)NC1c1cc(OC)ccc1OC` (centres unmarked), the IC50 is more than 10 µM.

For the compound `CCN(CC)C(=O)C1=C(C)NC(=O)NC1c1ccc(OC)c(Cl)c1` (centres unmarked), the IC50 is more than 10 µM.

As for `CC1=C(C(=O)OCC(C)C)C(c2ccc([N+](=O)[O-])cc2)NC(=O)N1C` (centres unmarked), the IC50 was not above 5 µM.

As to `COC(=O)C1=C(C)NC(=O)NC1c1ccc(C(C)(C)C)cc1` (centres unmarked), the IC50 was more than 10 µM.

With `CCN(CC)C(=O)C1=C(C)NC(=S)NC1c1ccccc1F` (centres unmarked), the IC50 was more than 10 µM.

With `COCCOC(=O)C1=C(C)NC(=S)NC1c1ccc(F)cc1` (centres unmarked), the IC50 was not above 5 µM.

`CC1=C(C(=O)OCc2ccccc2)C(c2ccc(F)cc2)NC(=O)N1` (centres unmarked): the IC50 was more than 10 µM.

As for `CC1=C(C(=O)OC(C)(C)C)C(c2cccc(Br)c2)NC(=O)N1` (centres unmarked), the IC50 was more than 10 µM.

Regarding `CC1=C(C(=O)OC(C)C)C(c2c(F)cccc2Cl)NC(=O)N1` (centres unmarked), the 50% inhibitory concentration (IC50) was more than 10 µM.

In the case of `CC1=C(C(=O)OCCC(C)C)C(c2ccc(Cl)c(Cl)c2)NC(=O)N1` (centres unmarked), the IC50 was more than 10 µM.

For the compound `CC1=C(C(=O)OCCc2ccccc2)C(c2ccc(F)cc2)NC(=O)N1` (centres unmarked), the IC50 was more than 10 µM.

Regarding `CCOC(=O)C1=C(C)NC(=S)NC1c1cccc(OC2CCCC2)c1` (centres unmarked), the IC50 is not above 5 µM.

With `COC(=O)C1=C(C)N(C)C(=S)NC1c1cccc(OC)c1` (centres unmarked), the IC50 was not below 20 µM.

With `COC(=O)C1=C(C)N(C)C(=O)NC1c1c(Cl)cccc1Cl` (centres unmarked), the IC50 is more than 10 µM.

As to `CCN1C(=O)NC(c2ccc(Br)cc2)C(C(=O)OC(C)C)=C1C` (centres unmarked), the IC50 was not above 5 µM.

With `CCCCCOC(=O)C1=C(C)NC(=O)NC1c1cccc(Br)c1` (centres unmarked), the IC50 was more than 10 µM.

Turning to `CCN(CC)C(=O)C1=C(C)NC(=S)NC1c1ccccc1OC` (centres unmarked), the 50% inhibitory concentration (IC50) was more than 10 µM.

Turning to `CCOC(=O)C1=C(C)NC(=S)NC1c1ccc(O)c(OC)c1` (centres unmarked), the IC50 was not above 10 µM.

The experiment is the same for the next values; noted with them: Table 2; read-out: hTRPA1 Fluor IC50.
Turning to `Cn1c(=O)c2c(ncn2CC(=O)NC(c2ccc(F)cc2)c2cccs2)n(C)c1=O` (centres unmarked) [Compound 343], the IC50 is more than 10 µM.

On to `Cc1cc([N+](=O)[O-])ccc1NC(=O)Cn1cnc2c1c(=O)n(C)c(=O)n2C` [Compound 227], for which the IC50 is not below 30 µM.

In the case of `CC1CCCCC1NC(=O)Cn1cnc2c1c(=O)n(C)c(=O)n2C` (centres unmarked) [Compound 279], the IC50 was more than 10 µM.

As for `COc1ccc(Nc2ccc(NC(=O)Cn3cnc4c3c(=O)n(C)c(=O)n4C)cc2)cc1` [Compound 249], the IC50 was not below 20 µM.

Turning to `CN(CCOc1ccccc1)C(=O)Cn1cnc2c1c(=O)n(C)c(=O)n2C` [Compound 324], the IC50 is not below 20 µM.

`CCN(C(=O)Cn1cnc2c1c(=O)n(C)c(=O)n2C)c1ccccc1` [Compound 283]: the IC50 is more than 10 µM.

In the case of `CC(C(=O)Nc1ccc2c(c1)OCO2)n1cnc2c1c(=O)n(C)c(=O)n2C` (centres unmarked) [Compound 331], the IC50 was more than 10 µM.

With `Cc1cccc(NC(=O)c2ccccc2NC(=O)Cn2cnc3c2c(=O)n(C)c(=O)n3C)c1` [Compound 355], the IC50 is not below 20 µM.

For `CC(C(=O)Nc1cccc(C(F)(F)F)c1)n1cnc2c1c(=O)n(C)c(=O)n2C` (centres unmarked) [Compound 318], the IC50 is more than 10 µM.

Take `Cn1c(=O)c2c(ncn2CC(=O)NCc2cccc(C(F)(F)F)c2)n(C)c1=O` [Compound 275]: the IC50 is more than 10 µM.

For `Cn1c(=O)c2c(ncn2CC(=O)NCc2ccccn2)n(C)c1=O` [Compound 243], the IC50 is more than 10 µM.

Turning to `Cc1cc(C)c(-c2csc(NC(=O)Cn3cnc4c3c(=O)n(C)c(=O)n4C)n2)c(C)c1` [Compound 272], the IC50 was more than 10 µM.

Regarding `CN(CC(=O)Nc1ccc(F)c(F)c1F)C(=O)Cn1cnc2c1c(=O)n(C)c(=O)n2C` [Compound 293], the IC50 was more than 10 µM.

For `Cc1ccc(NC(=O)Cn2cnc3c2c(=O)n(C)c(=O)n3C)nc1` [Compound 372], the IC50 is not below 30 µM.

Regarding `COc1ccc(C)cc1NC(=O)Cn1cnc2c1c(=O)n(C)c(=O)n2C` [Compound 373], the half-inhibitory concentration (IC50) was more than 10 µM.

Take `COc1ccccc1NC(=O)C(C)n1cnc2c1c(=O)n(C)c(=O)n2C` (centres unmarked) [Compound 303]: the IC50 was more than 10 µM.

As for `COC(=O)c1cccc(NC(=O)Cn2cnc3c2c(=O)n(C)c(=O)n3C)c1` [Compound 290], the IC50 is not above 10 µM.

With `CC(NC(=O)Cn1cnc2c1c(=O)n(C)c(=O)n2C)c1ccc2c(c1)OCCO2` (centres unmarked) [Compound 310], the IC50 was more than 10 µM.

Consider `Cc1cc(C)c(NC(=O)Cn2cnc3c2c(=O)n(C)c(=O)n3C)c(Cl)c1` [Compound 330], for which the IC50 was more than 10 µM.

`Cn1c(=O)c2c(ncn2CC(=O)Nc2ccc3c(c2)OCCCO3)n(C)c1=O` [Compound 326]: the IC50 is not above 10 µM.

Take `CC(C(=O)Nc1cccc(Cl)c1)n1cnc2c1c(=O)n(C)c(=O)n2C` (centres unmarked) [Compound 297]: the IC50 is more than 10 µM.

In the case of `CC1CCCC(NC(=O)Cn2cnc3c2c(=O)n(C)c(=O)n3C)C1C` (centres unmarked) [Compound 349], the IC50 is more than 10 µM.

Regarding `Cn1c(=O)c2c(ncn2CC(=O)Nc2cccc([N+](=O)[O-])c2)n(C)c1=O` [Compound 223], the IC50 was not above 10 µM.

As to `Cn1c(=O)c2c(ncn2CC(=O)Nc2ccccn2)n(C)c1=O` [Compound 369], the IC50 is more than 10 µM.

Consider `Cn1c(=O)c2c(ncn2CC(=O)Nc2ccc(N3CCOCC3)cc2)n(C)c1=O` [Compound 247], for which the IC50 is not above 5 µM.

`COc1ccc(CNC(=O)Cn2cnc3c2c(=O)n(C)c(=O)n3C)cc1OC` [Compound 319]: the IC50 is more than 10 µM.

Consider `CCCC(C)NC(=O)Cn1cnc2c1c(=O)n(C)c(=O)n2C` (centres unmarked) [Compound 376], for which the IC50 was more than 10 µM.

Consider `Cn1c(=O)c2c(ncn2CC(=O)Nc2cccc3ccccc23)n(C)c1=O` [Compound 231], for which the IC50 was more than 10 µM.

For the compound `COc1ccc(NC(=O)Cn2cnc3c2c(=O)n(C)c(=O)n3C)cc1Cl` [Compound 280], the IC50 is not above 10 µM.

`Cc1ccc(NC(=O)Cn2cnc3c2c(=O)n(C)c(=O)n3C)cc1F` [Compound 306]: the IC50 was more than 10 µM.

Consider `Cc1c(C#N)c(NC(=O)Cn2cnc3c2c(=O)n(C)c(=O)n3C)n(Cc2ccccc2)c1C` [Compound 356], for which the IC50 is more than 10 µM.

Regarding `Cn1c(=O)c2c(ncn2CC(=O)NCc2ccco2)n(C)c1=O` [Compound 368], the IC50 is more than 10 µM.

Regarding `Cc1cccc(NC(=O)C(C)n2cnc3c2c(=O)n(C)c(=O)n3C)c1` (centres unmarked) [Compound 328], the IC50 was not below 30 µM.
